We go through 7 molecules from patent publication US12571800B2, “Means and methods for treating angiogenesis-related diseases” (Heidelberg Biotech GmbH, priority 2011, dated 2026).

One data set relates to Wild type LLC tumors. Description: Wild type LLC lung cancer model, prevention trial. In kind it is in vivo, C57B16 mice. The protocol: Wild type LLC tumors (10.000 cells) were implanted s.c. in C57B16 mice. Tumors were sham treated (PBS, control), with the reference FN-mimetic-peptide (“FN-Motif”) containing only the “[…]” sequence (SEQ ID NO: 8) or with murine Superstatin (SEQ ID NO: 7) at the dose of 50 μg peptide in 100 μl PBS every 12 h s.c. (n: 5 in each group). Treatment was started 4 days after tumor implantation (“prevention trial”) and continued for 24 days. […] Tumor size reaching 1000 mm^2 was considered as death event in the Kaplan-Meier analysis.
Tumors were sham treated (PBS), with the reference FN-mimetic-peptide containing only the “[…]” sequence (SEQ ID NO: 8; FN motif) or with murine Superstatin (SEQ ID NO: 7) at the dose of 50 μg peptide in 100 μl PBS every 12 h s.c. (n: 5 in each group). Treatment was started 4 days after tumor implantation (“prevention trial”) and continued for 24 days. […] Tumor size reaching 1000 mm^2 was considered as death event in the Kaplan-Meier analysis.

The subject of a further data set is LLC FN −/− tumor cells. Description: Fibronectin knockdown LLC tumor model. It is filed as in vivo, C57B16 mice. The note with it: treatment started day 4 post implantation; p<0.01 vs control or Fc-Endostatin. An excerpt: In contrast, the Superstatin peptide (SEQ ID NO: 7) exerts potent tumor growth inhibition in FN −/− LLC tumors growing s.c. in C57B16 mice.
Once the efficacy of the Superstatin peptide (SEQ ID NO: 7) was confirmed, the inventors moved toward the second strategy to validate the proposed concept that FN signaling is critical for oligomeric NC-1 to exert their anti-angiogenic and anti-tumoral effects. […] LLC FN −/− tumor cells (100.000) were implanted in C57B16 mice and treatment with dimeric murine Fc-Endostatin vs. Superstatin was started on day 4 post implantation. Knockdown of FN rendered LLC tumors resistant to oligomeric NC-1 (Fc-Endostatin).

Data set [1] has as its target T1, fibronectin (Homo sapiens, UniProt P02751). Description: Elisa, binding to fibronectin. Conditions: proteins coated at 10 μg/ml; fibronectin as ligand at the same concentration. The protocol:
Coating of proteins were done in PBS at concentration of 10 μg/ml. Fibronectin served as a ligand at the same concentration. All buffers contained 2% BSA, 0.1% Tween-20.
Three protein constructs human Fc (control), dimeric human (h)Fc-Endostatin and hFc-VEGF were employed. […] Artificial endostatin dimer was generated by introducing a single mutation in amino acid position 7 of endostatin (changing glutamine to cysteine) in the recombinant Fc-endostatin. Upon digestion of this mutant protein by enterokinase, endostatin dimer is produced, linked by a disulfide bond (Kuo et al., loc. cit.).

Data set [2] deals with T1, fibronectin. Briefly: Biacore (SPR) equilibrium binding constants to fibronectin. The note with it: fibronectin 0.78 nM-100 nM over immobilized protein; values only in FIG. 1C. The protocol:
Fibronectin samples were prepared by serial dilution into 0.01 M Hepes, pH 7.4, 0.15 M NaCl, 0.05% Surfactant containing 1 mg/ml BSA in the range 0.78 nM-100 nM and flowed over control and derivatized surfaces for three minutes at a flow-rate of 60 μl/min. Dissociation phases were monitored for 5 minutes. Zero concentration blank buffer cycles were included as negative control samples. Sensor surfaces were regenerated using a 1 minute injection of 1 M ethanolamine, pH 8.5 following each interaction analysis cycle. Non-specific binding effects to sensor surface CM4 were not observed. Calculated ka, kd and KD are shown. Different curves correspond to different concentrations of fibronectin.
1.3 Surface Plasmon Resonance (SPR) binding assays. This analysis provides for a unique method for measuring equilibrium constants between two binding partners. It is able to evaluate the kinetics of an interaction by recording the rates of complex formation (ka) and dissociation (kd) followed by employing a software which determines the values of these two parameters. Equilibrium constant (KD) is obtained by calculating the ration of kd/ka Human VEGF (R&D), endostatin, endostatin dimer and human NC-1 (hNC-1) were diluted to 50 μg/ml in 10 mM Sodium Acetate, pH 5.5 and immobilized onto series S sensor chip(s) CM4 via a standard N-ethyl-N′-(dimethyl-aminopropyl)carbodiimide/N-hydroxysuccinimide (EDC/NHS) amine coupling procedures. Control surfaces were prepared similarly without protein derivatization and utilized as a reference surface for compound binding experiments.
Binding measurements were performed using a Biacore™ (GE Healthcare, Uppsala, Sweden) instrument which employs surface plasmon resonance to detect and monitor molecular interactions.
Data analysis was carried out using Biacore T100 evaluation software v1.1.1. Data were prepared by subtraction of reference surface data and blank buffer sample data, a procedure commonly referred to as ‘double referencing’ and fitted to a 1:1 langmuir binding model.
In order to measure equilibrium binding constants for the above proteins, a Biacore system was employed. […] Fc-endostatin imposes a dimeric structure on the two molecules of endostatin at the C-terminus of Fc dimer.
In general terms: SPR reads the build-up and loss of mass on a sensor chip optically.

Data set [3] concerns Fc-Endostatin-resistant LLC cells (Endo P4). Briefly: Fc-Endostatin-resistant LLC tumors, passage 5, IGF1R inhibitor. In kind it is in vivo, C57B16 mice. An excerpt:
Previously generated passage four Fc-Endostatin-resistant LLC cells (Endo P4, as described in the following examples) were subcutaneously injected to C57B16 mice.

A further data set has as its target T2, VEGF (Homo sapiens, UniProt P15692).
T2 sequence (P15692 207-395 limits assumed): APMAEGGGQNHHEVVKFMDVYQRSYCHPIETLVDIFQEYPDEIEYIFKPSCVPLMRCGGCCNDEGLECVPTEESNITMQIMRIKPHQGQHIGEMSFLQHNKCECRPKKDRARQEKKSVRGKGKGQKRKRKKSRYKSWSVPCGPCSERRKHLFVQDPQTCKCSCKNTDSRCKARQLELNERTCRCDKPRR
Description: Competition with VEGF-ED-dimer (Fc-Endostatin) binding. Conditions: preliminary data. An excerpt:
The first approach was to engineer a minimal peptide sequence that would mimic the key effects of the ED-FN complex. […] Preliminary data by the present inventors indicate that this region itself may be capable of binding to VEGF and that the two histidines (Zinc binding domain) in this peptide sequence may be critical for VEGF binding. […] On the other hand, fibronectin contains two active motifs that are critical for its binding to ITGA5B1, i.e. a PHSRN-(SEQ ID NO:20) and a RGD-dependent motif.

The subject of data set [4] is human melanoma cancer cells (A2058). Briefly: A2058 human melanoma tumors in nude mice. Conditions: end of experiment; s.c. once a day; hNC-1 100 μg/mouse, endostatin 100 and 500 μg/mouse. In kind it is in vivo. As for the experimental part: 4-6 tumor-bearing nude mice in each group were subcutaneously (s.c.) treated with hNC-1 (100 μg/mouse once a day), clinical-grade endostatin (100 and 500 μg/mouse once a day) or PBS. Treatment was stopped prior to the development of necrosis. Sites of injection were away from tumors. Tumor sizes and the ratio of treated/control (T/C) is shown.
1.4 Animal and tumor models. All animal procedures were carried out in compliance with Children's Hospital Boston guidelines Protocols were approved by the Institutional Animal Care and Use Committee. Eight-week-old male (24-27 g) nude/nude mice (Massachusetts General Hospital, Boston, MA) were used. Mice were acclimated, caged in groups of five in a barrier care facility, and fed animal chow and water ad libitum. Animals were euthanized by CO2 inhalation. Human melanoma cell line A2058 was used for animal studies. A suspension of 2×10^6 tumor cells in 0.1 ml of PBS was injected subcutaneously (s.c.) into the dorsa of mice at the proximal midline. Mice were weighed and tumors were monitored twice a week in two diameters with digital calipers. Tumor volumes were determined using a^2×b×0.52 (where a is the shortest and b is the longest diameter). Tumors were allowed to grow to ˜100 mm^3 and mice were randomized. Treatment was by bolus s.c. injections. After experiments were completed, tumors and organs were excised and fixed in either 4% paraformaldehyde or were snap frozen. Four to six mice were treated with each group.
2.6 hNC-1 suppresses tumor growth in vivo. In order to compare anti-tumor activities of NC-1 and endostatin, nude mice bearing human melanoma cell line A2058 were employed. Two doses of clinical grade endostatin differing by 5-fold in concentration of protein (low and high doses) were used. […] It cannot be ruled out the possibility that injected NC-1 becomes degraded upon entering the circulation.

The target of another data set is α5β1 (Homo sapiens, UniProt P05556+P08648). Description: Direct binding to integrin α5β1 (Elisa, immunoprecipitation, cell adhesion). The note with it: immunoprecipitation and cell adhesion assays. An excerpt:
Endostatin binding to two integrins αvβ3 and α5β1 was first reported in 2001 (Rehn et al. 2001, PNAS 98, 1024). Presumably, such a binding inhibits interactions of fibronectin with these integrins. […] Endostatin lacks the sequence RGD. Consequently, such a binding must be mediated by other amino acids on endostatin.

For data set [5] the following is noted: in vivo; cited from earlier work.
The conditions of data set [6]: cited from earlier work.
[7] abbreviates: 50 μg peptide every 12 h s.c., day 4 on for 24 days.

Changes are numbered by the printed parent chain.

T1 sequence (P02751 32-2477): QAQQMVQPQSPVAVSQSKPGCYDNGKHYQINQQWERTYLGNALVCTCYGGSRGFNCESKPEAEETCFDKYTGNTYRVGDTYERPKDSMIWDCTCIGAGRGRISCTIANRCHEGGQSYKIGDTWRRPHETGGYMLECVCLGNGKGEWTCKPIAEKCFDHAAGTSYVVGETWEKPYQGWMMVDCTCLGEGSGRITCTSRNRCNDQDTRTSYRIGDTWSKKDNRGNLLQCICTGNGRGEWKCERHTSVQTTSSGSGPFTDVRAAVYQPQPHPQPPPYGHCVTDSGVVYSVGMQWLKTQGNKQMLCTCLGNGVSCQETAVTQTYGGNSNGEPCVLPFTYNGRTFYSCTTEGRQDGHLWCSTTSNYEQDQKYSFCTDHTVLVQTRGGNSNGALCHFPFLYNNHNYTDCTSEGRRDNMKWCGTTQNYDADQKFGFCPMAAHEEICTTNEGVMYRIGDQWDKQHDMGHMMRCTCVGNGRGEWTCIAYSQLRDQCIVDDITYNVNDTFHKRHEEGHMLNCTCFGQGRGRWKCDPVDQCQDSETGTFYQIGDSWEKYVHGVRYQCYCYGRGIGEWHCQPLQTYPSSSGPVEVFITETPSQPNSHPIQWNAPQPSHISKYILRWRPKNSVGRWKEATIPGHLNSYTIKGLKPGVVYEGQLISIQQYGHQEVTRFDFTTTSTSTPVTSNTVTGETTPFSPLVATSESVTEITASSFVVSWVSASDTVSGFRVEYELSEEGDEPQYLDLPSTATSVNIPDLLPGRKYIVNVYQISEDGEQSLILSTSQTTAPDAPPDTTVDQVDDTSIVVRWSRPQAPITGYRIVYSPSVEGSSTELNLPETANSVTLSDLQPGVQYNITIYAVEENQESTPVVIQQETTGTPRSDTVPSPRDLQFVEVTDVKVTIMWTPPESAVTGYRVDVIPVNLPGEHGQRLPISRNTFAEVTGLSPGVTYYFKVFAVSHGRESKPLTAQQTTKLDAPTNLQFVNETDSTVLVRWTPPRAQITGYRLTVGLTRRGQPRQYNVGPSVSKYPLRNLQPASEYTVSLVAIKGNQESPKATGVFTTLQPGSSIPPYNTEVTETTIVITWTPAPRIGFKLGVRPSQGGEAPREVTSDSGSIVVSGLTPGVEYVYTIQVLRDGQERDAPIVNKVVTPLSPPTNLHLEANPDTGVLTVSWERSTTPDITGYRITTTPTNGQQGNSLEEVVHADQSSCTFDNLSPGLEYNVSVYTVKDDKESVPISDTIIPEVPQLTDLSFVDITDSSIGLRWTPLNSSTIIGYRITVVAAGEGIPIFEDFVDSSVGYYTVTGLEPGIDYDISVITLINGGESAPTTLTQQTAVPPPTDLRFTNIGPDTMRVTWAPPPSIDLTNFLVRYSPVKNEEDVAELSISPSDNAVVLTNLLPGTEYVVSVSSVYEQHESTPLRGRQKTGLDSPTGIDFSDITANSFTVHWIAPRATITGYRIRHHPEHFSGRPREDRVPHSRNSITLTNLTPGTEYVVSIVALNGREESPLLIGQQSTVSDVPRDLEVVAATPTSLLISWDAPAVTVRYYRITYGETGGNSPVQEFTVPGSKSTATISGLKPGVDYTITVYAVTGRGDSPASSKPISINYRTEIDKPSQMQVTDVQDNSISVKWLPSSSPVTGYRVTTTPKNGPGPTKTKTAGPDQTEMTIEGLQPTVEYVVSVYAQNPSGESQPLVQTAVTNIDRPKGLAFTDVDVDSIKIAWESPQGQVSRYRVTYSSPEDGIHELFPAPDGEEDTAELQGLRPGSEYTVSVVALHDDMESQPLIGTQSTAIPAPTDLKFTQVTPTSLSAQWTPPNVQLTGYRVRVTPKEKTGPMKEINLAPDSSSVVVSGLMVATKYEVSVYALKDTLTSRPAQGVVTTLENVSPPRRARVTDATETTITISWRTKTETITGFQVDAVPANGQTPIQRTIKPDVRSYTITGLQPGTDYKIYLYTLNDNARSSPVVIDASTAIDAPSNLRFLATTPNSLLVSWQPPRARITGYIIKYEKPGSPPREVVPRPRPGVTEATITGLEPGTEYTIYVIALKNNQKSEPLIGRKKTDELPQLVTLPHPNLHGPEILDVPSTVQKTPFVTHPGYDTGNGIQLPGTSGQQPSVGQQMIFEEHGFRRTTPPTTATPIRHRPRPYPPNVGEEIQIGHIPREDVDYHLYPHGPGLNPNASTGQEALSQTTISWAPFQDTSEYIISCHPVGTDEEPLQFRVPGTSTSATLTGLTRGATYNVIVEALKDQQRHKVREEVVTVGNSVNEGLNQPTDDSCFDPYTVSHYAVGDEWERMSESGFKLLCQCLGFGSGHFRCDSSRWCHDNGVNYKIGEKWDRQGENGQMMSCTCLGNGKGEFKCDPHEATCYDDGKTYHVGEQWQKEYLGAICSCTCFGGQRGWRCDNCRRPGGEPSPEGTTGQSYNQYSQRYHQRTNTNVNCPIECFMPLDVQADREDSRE
α5β1, sequence (P08648 42-894 limits assumed): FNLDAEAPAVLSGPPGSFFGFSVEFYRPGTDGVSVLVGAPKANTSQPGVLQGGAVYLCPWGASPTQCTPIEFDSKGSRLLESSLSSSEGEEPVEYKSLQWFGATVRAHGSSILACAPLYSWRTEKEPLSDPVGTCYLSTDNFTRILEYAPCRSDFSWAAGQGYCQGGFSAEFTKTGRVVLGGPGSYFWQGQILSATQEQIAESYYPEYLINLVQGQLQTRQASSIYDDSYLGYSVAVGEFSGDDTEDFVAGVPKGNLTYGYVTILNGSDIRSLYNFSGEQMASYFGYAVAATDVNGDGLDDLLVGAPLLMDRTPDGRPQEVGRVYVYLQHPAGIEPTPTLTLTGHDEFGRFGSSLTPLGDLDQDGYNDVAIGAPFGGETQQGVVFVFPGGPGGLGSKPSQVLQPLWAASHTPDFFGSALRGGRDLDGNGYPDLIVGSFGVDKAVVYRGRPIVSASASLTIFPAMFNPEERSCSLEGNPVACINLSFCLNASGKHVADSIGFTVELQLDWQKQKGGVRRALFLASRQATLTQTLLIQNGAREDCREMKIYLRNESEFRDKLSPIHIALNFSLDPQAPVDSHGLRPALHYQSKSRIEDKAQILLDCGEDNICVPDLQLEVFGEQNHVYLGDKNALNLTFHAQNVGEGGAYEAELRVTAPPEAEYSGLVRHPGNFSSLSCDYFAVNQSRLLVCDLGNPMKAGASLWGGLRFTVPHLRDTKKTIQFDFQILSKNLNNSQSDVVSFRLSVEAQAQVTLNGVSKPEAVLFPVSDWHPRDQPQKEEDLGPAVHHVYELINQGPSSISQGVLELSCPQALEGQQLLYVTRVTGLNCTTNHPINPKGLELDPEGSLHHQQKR
α5β1, sequence (P08648 895-1049 limits assumed): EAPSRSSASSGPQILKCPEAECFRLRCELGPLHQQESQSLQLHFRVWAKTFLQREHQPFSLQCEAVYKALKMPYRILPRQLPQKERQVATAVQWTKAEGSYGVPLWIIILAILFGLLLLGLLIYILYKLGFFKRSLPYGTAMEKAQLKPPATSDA
α5β1, sequence (P05556 21-798): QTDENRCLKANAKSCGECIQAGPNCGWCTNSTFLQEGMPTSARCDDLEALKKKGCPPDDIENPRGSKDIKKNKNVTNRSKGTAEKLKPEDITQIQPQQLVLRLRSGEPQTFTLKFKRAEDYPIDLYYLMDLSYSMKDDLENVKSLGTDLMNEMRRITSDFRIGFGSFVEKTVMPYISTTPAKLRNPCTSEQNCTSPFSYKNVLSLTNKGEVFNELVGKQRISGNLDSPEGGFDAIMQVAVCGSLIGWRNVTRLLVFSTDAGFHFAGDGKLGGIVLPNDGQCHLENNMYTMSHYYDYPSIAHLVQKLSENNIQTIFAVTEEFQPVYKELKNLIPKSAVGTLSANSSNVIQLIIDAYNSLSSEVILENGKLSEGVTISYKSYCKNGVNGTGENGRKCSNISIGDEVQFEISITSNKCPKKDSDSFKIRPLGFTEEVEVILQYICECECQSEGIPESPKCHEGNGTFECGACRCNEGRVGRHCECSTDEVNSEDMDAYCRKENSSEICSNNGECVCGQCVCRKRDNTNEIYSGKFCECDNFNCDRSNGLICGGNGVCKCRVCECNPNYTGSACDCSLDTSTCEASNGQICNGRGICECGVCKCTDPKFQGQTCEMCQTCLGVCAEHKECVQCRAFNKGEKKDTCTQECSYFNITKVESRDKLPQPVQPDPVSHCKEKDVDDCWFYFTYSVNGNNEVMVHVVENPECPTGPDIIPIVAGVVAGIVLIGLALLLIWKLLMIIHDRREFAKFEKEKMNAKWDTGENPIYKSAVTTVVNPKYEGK

“Superstatin: HTHQDFQPVLHLVLYAVTGRGDSPASSK (SEQ ID NO: 7), NC1-ED Motif-FN-Motif hybrid (listed as Mus musculus)”: in the data set with Wild type LLC tumors (setting [7]), the tumor growth entry is “potently inhibit tumor growth”. Besides, the “survival (Kaplan-Meier) as compared to control” value in the data set with Wild type LLC tumors (50 μg peptide every 12 h s.c., day 4 on for 24 days, p<0.03 by log-rank test) was “significantly prolonged survival”. Also, the “tumors growing during the treatment period” value in the data set on Wild type LLC tumors (n: 5 in each group) is given as “only a single tumor grew”. The “tumor growth in FN −/− LLC tumors” value in the data set with LLC FN −/− tumor cells is “significantly inhibited tumor growth”.

Consider VEGF [reference compound], for which, on fibronectin [1], the “binding to fibronectin (Elisa)” value is listed as “bound fibronectin”. Moreover, the “equilibrium binding constant to fibronectin (Biacore)” value (from here on “equilibrium binding constant”) on fibronectin [2] is reported as “High affinity constants”.

As for “FN-Motif: LYAVTGRGDSPASSK (SEQ ID NO: 8; same sequence as SEQ ID NO: 11) (listed as Mus musculus) [reference compound]”, the tumor growth entry in the data set on Wild type LLC tumors (setting [7]) is on record as “no significant improvement in prevention of tumor growth”.

`COc1cc([C@@H]2c3cc4c(cc3[C@H](O)[C@H]3COC(=O)[C@@H]23)OCO4)cc(OC)c1OC` [PPP, cyclolignan picropodophyllin]: the “tumor growth, sequential IGF1R inhibition” value in [3] (20 mg/kg IP, sequential to mFc-Endo) is listed as “inhibited tumor growth”. The “tumor growth, concurrent administration” value in data set [3] (concurrent with mFc-Endo) is “only partially reversed the enhanced growth kinetic”. Moreover, the “protein expression in passage 5 LLC tumors (Western blot)” value in [3] (mouse, in vivo) is on record as “partially reversed this phenotype”.

As to “mP1-H1/3A: ATAQDFQPVLHLVALNTPLSGGMRGIR (SEQ ID NO: 19) (mP1-H1/3A)”, the “competition with VEGF-ED-dimer (Fc-Endostatin) binding” value with VEGF is recorded as “failed to compete”.

B1: endostatin: 183-amino acid proteolytic cleavage fragment corresponding to the C-terminus of collagen 18 (protein, UniProt P39060 1572-1754, looked up)
Endostatin: HSHRDFQPVLHLVALNSPLSGGMRGIRGADFQCFQQARAVGLAGTFRAFLSSRLQDLYSIVRRADRAAVPIVNLKDELLFPSWEALFSGSEGPLKPGARIFSFDGKDVLRHPTWPQKSVWHGSDPNGRRLTESYCETWRTEAPSATGQASSLLGGRLLGQSAASCHHAYIVLCIENSFMTASK
modifications: Endostatin
Take B1: the “binding to fibronectin (Elisa)” value with fibronectin [1] is “did not”. The “equilibrium binding constant” value in the data set with fibronectin [2] is reported as “No binding was detected”. Further, the “inhibition of tumor growth” value in [4] came out at 48%. In addition, the “direct binding to α5β1” value in the data set with α5β1 is reported as “without success”. In addition, the half-life in circulation result in data set [5] is “very short”. Further, in data set [6] (in vivo), the “anti-tumor activity in clinical trials” value is recorded as “did not demonstrate substantial endostatin anti-tumor activity”. The “safety in clinical trials” value in [6] (variety of dose schedules) is listed as “very safe drug”.

B2: Endostatin dimer: disulfide-linked endostatin dimer, glutamine to cysteine at position 7, released from Fc-endostatin by enterokinase (protein, UniProt P39060 1572-1754, looked up, variant Q7C)
Endostatin: B1 Endostatin with Q7C
modifications: Endostatin disulfide-linked dimer
notes: disulfide-linked endostatin dimer, glutamine to cysteine at position 7, released from Fc-endostatin by enterokinase
Take B2: in the data set with fibronectin [1], the “binding to fibronectin (Elisa)” value was “bound fibronectin”. The “equilibrium binding constant” value with fibronectin [2] is reported as “High affinity constants”.
